# Experimental data taken from publication PMC7190413 (Journal of cystic fibrosis : official journal of the …, 2019).
# Read-outs that look alike come from different tables or passages of the source.
# Legend:
# G551D-CFTR [1] = molecular target: T1, G551D-CFTR (Homo sapiens, UniProt P13569, G551D); test: Single-channel activity in reconstituted planar phospholipid bilayer; assay type: biochemical; settings: PKA-activated, 28–30°C
# G551D-CFTR [2] = molecular target: T1, G551D-CFTR; test: Short-circuit current; assay type: cell-based; settings: for forskolin-activated Isc relative to that of WT-CFTR: forskolin 20 μM
# G551D-CFTR [3] = molecular target: T1, G551D-CFTR; test: Short-circuit current; assay type: cell-based; settings: CFBE; forskolin 20 μM then acute VX-770 10 μM; Fig. 5a,b
# G551D-CFTR [4] = molecular target: T1, G551D-CFTR; test: Fractional PM activity; assay type: cell-based; settings: CFBE; forskolin-stimulated, mono-therapy or dual potentiator treatment; Fig. 5d
# S1251N-CFTR = test: Fractional PM activity; assay type: cell-based, human; settings: CFBE; forskolin plus single potentiator; Fig. 5f
# T1 sequence (P13569 whole entry G551D): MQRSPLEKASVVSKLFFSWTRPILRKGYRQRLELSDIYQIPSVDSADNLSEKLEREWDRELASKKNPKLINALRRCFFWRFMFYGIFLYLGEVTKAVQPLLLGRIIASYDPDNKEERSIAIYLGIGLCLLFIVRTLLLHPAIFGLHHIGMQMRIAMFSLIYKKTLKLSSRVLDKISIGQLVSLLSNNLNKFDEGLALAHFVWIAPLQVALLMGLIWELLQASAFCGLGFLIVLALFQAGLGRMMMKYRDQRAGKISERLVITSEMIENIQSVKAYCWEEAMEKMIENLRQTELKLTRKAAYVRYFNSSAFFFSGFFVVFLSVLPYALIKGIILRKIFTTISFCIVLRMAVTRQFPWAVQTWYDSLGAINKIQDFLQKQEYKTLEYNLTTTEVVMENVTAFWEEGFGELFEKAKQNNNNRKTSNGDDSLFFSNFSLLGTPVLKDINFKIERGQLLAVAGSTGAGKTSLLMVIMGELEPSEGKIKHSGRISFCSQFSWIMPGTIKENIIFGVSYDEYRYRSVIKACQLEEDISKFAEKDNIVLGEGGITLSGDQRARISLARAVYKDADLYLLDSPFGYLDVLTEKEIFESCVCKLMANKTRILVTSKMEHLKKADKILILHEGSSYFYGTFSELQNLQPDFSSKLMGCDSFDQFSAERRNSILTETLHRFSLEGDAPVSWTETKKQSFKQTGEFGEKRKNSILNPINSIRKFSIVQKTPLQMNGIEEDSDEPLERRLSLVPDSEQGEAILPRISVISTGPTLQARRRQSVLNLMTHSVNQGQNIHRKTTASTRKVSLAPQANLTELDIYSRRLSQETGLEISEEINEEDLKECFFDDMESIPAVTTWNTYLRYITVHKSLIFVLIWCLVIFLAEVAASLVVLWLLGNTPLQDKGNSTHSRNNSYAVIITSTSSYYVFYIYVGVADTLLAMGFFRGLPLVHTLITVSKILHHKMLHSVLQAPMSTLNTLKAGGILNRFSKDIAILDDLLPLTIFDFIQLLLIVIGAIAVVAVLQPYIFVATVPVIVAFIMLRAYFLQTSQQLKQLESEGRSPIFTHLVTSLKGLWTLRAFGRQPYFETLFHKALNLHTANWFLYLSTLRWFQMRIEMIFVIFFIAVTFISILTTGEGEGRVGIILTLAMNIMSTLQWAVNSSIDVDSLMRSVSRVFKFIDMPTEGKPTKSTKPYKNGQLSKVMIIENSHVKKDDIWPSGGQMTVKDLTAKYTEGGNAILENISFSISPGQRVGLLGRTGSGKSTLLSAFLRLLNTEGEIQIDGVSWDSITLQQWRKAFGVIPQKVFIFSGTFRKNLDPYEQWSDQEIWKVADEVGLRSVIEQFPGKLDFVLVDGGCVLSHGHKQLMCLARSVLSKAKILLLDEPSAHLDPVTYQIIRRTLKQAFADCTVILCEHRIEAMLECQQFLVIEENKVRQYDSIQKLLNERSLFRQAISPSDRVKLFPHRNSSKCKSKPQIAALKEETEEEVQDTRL
SMILES,open probability (Po) of phosphorylated G551D-CFTR (G551D-CFTR [1]; 3 μM VX-770),EC50 (G551D-CFTR [2]) [nM],forskolin-activated Isc relative to that of WT-CFTR (G551D-CFTR [2]; HNE with G551D on both alleles),forskolin-activated Isc relative to that of WT-CFTR (G551D-CFTR [2]; HNE with one copy of G551D),"G551D-CFTR Isc, of WT-function (G551D-CFTR [3])","fractional PM activity of G551D, of the WT (G551D-CFTR [4]) [%]","fractional PM activity of S1251N after single potentiator therapy, of WT (S1251N-CFTR)",open probability (Po) of phosphorylated G551D-CFTR upon addition of apigenin (G551D-CFTR [1]; 50 μM apigenin in the presence of 3 μM VX-770),"lower potency in comparison to VX-770 (G551D-CFTR [2]; HNE, G551D-CFTR, Isc EC50) [fold]","EC50 (G551D-CFTR [2]; read-out: EC50 for G551D-CFTR potentiation, HNE, Isc, Supplementary Fig. 6e,f) [nM]"
"CC(C)(C)c1cc(C(C)(C)C)c(NC(=O)c2c[nH]c3ccccc3c2=O)cc1O [VX-770, ivacaftor]",~ 0.08,~40,~ 50%,~ 25%,~ 6%,6,~ 80%,,,
O=c1cc(-c2ccc(O)cc2)oc2cc(O)cc(O)c12 [apigenin],,,,,,,,0.14,,
CC1(C)Cc2c(sc(NC(=O)c3ccn[nH]3)c2C(N)=O)C(C)(C)O1 [ABBV-974],,,,,,7,~ 80%,,7,~300
